In patent US7271161B2, “Platinum complexes as antitumor agents in combination with biochemical modulation” (Board of Regents, the University of Texas System, priority 2002, dated 2007):
Read-outs that look alike come from different tables or passages of the source.

Legend:
Human A2780 cell line = test: MTT cytotoxicity assay, cisplatin-sensitive ovarian A2780 cells, with or without BSO; format: cell-based; design: key to DMF vs. A2780 Control (Without BSO): DMF = IC50 without BSO / IC50 with BSO; settings: for DMF vs. A2780 +10 μM BSO (MTC): IC50 without BSO / IC50 with 10 μM BSO (MTC); for DMF vs. A2780 Control (Without BSO): without BSO (reference)
Text: (§1) The ovarian A2780 and 2008 cell lines are sensitive to cisplatin, while the corresponding 2780CP and 2008/C13* cell lines were selected for resistance following in vitro exposure to cisplatin. The SKOV-3 cell line was established from a patient who was resistant to cisplatin therapy and is considered a model of cisplatin resistance. The A2780 and 2780CP cells have wild-type p53 function, while SKOV-3 is devoid of p53 function. The p53 status for the 2008 and 2008/C131 cells is presently not known.
(§2) Procedure for Cytotoxic Evaluation. All cell lines are maintained in RPMI 1640 medium supplemented with 10% fetal bovine serum, 50 μg/ml penicillin, 50 μg/ml streptomycin, 100 μg/ml neomycin and 0.3 mg/ml L-glutamine. The ovarian lines also require 2 μg/ml insulin for maximal growth. Cells are grown as monolayers at 37° C. in a humidified atmosphere of 5% CO2:95% air. Cytotoxicity is determined by a standard MTT assay. Briefly, the exponentially-growing cells are trypsinized to dislodge them before use. After diluting the tumor cells to appropriate concentrations (2,000-30,000 cells/ml), 100 μl aliquots of the cell suspensions are added to each well of a 96-well microtiter plate. The cells are allowed to attach overnight, and then exposed for 24 hr to BSO at a concentration that is equal to or less than maximally tolerated concentration (MTC). At 22 hr after addition of BSO, the platinum complex is added, and 2 hr later the cells are washed and reincubated. After another 5 days, when control cells are in an exponential phase of growth, 50 μl of an MTT solution (3 mg/ml) is added to each well. Following a 3-hr incubation, the medium is removed and replaced by 50 μl of 100% DMSO to dissolve MTT formazan crystals. Plates are agitated on a plate shaker for 5 min, and absorbances are measured at 570 nm in a multiwell scanning spectrophotometer.
(§3) IC50 values, defined as the drug concentration (μM) inhibiting cell growth by 50% compared to control wells, are determined by fitting a sigmoidal curve to the data using a computer program. Resistance factor is calculated as a ratio of the IC50 against resistant cell line to the IC50 against parent cell line. The dose modification factor (DMF) is derived from a ratio of IC50 without BSO to that with BSO.

Human 2780CP cell line = test: MTT cytotoxicity assay, cisplatin-resistant ovarian 2780CP cells, with or without BSO; format: cell-based; design: key to DMF vs. 2780CP Control (Without BSO) / DMF Control / DMF +BSO (MTC): DMF = IC50 without BSO / IC50 with BSO; settings: for DMF vs. 2780CP +10 μM BSO: IC50 without BSO / IC50 with 10 μM BSO; for DMF vs. 2780CP +3 mM BSO (MTC): IC50 without BSO / IC50 with 3 mM BSO (MTC); for DMF vs. 2780CP Control (Without BSO): without BSO (reference)
Text: as §1, §2, §3

[1] = +10 μM BSO (MTC), 24 hr BSO, read-out: IC50 (μM) vs. A2780 +10 μM BSO (MTC)
[2] = without BSO, 2 hr platinum exposure, MTT after 5 days, read-out: IC50 (μM) vs. A2780 Control (Without BSO)
[3] = +10 μM BSO, read-out: IC50 (μM) vs. 2780CP +10 μM BSO
[4] = +3 mM BSO (MTC), read-out: IC50 (μM) vs. 2780CP +3 mM BSO (MTC)
[5] = IC50 2780CP with 10 μM BSO / IC50 A2780 without BSO
[6] = IC50 2780CP with 3 mM BSO (MTC) / IC50 A2780 without BSO
[7] = IC50 2780CP without BSO / IC50 A2780 without BSO
[8] = without BSO, read-out: IC50 (μM) vs. 2780CP Control (Without BSO)

SMILES	IC50 (Human A2780 cell line; [1])	DMF vs. A2780 +10 μM BSO (MTC) (Human A2780 cell line)	DMF vs. A2780 Control (Without BSO) (Human A2780 cell line)	IC50 (Human A2780 cell line; [2])	IC50 (Human 2780CP cell line; [3])	IC50 (Human 2780CP cell line; [4])	Resistance Factor vs. 2780CP +10 μM BSO (Human 2780CP cell line; [5])	Resistance Factor vs. 2780CP +3 mM BSO (MTC) (Human 2780CP cell line; [6])	Resistance Factor vs. 2780CP Control (Without BSO) (Human 2780CP cell line; [7])	DMF vs. 2780CP +10 μM BSO (Human 2780CP cell line)	DMF vs. 2780CP +3 mM BSO (MTC) (Human 2780CP cell line)	DMF vs. 2780CP Control (Without BSO) (Human 2780CP cell line)	IC50 (Human 2780CP cell line; [8])	Resistance Factor vs. 2780CP +10 μM BSO (Human 2780CP cell line)	Resistance Factor vs. 2780CP +3 mM BSO (MTC) (Human 2780CP cell line)	Resistance Factor vs. 2780CP Control (Without BSO) (Human 2780CP cell line)
[NH2][Pt]([Cl])([Cl])[NH]C1CCCCC1 [Complex 6]	0.5 µM	1.26	1.00	0.63 µM	6.98 µM	4.19 µM	11.1	6.65	12.0	1.08	1.80	1.00	7.55 µM	–	–	–
[NH2][Pt]([Cl])([Cl])[NH]C1CCCCCCC1 [Complex 8]	0.61 µM	1.26	1.00	0.77 µM	5.97 µM	2.35 µM	7.75	3.05	9.62	1.24	3.15	1.00	7.41 µM	–	–	–
[NH2][Pt]([Cl])([Cl])[N]1CCC1 [Complex 9]	3.02 µM	1.41	1.00	4.27 µM	18.7 µM	8.2 µM	4.38	1.92	6.37	1.45	3.32	1.00	27.2 µM	–	–	–
[NH2][Pt]([Cl])([Cl])[N]1CCCC1 [Complex 10]	2.9 µM	1.41	1.00	4.08 µM	28.2 µM	17.2 µM	6.91	4.22	9.12	1.32	2.16	1.00	37.2 µM	–	–	–
N[C@@H]1CCCC[C@H]1N.[Cl][Pt+2]([Cl])([Cl])[Cl] [Complex 13, Tetraplatin, reference compound]	–	–	–	–	–	–	–	–	–	–	–	–	–	4.12	2.77	5.28
N[C@@H]1CCCC[C@H]1N.[OH][Pt+2]([OH])([Cl])[Cl] [Complex 14]	1.17 µM	1.07	1.00	1.25 µM	15.5 µM	9.54 µM	12.4	7.63	12.6	1.02	1.66	1.00	15.8 µM	–	–	–
